{
  "source": "paper PMC12562567",
  "about": "“Comparative Efficacy of CK2 Inhibitors CX-4945 and SGC-CK2-2 on CK2 Signaling” (International Journal of Molecular Sciences, 2025)",
  "key": {"[1]": {"system": "phospho-Akt1 S129", "assay": "Western blot of phospho-Akt1 S129 (CK2 substrate) in HeLa cells", "assay_type": "cell-based, human", "conditions": "for IC50: Homo sapiens, read-out: IC50 pS129 AKT phosphorylation", "excerpt": "(§1) . These substrates were selected based on their different responses to kinase inhibition. S129Akt was described in 2015 as a specific CK2 substrate, and its phosphorylation is highly sensitive to CK2 inhibition showing a strong early reduction. On the contrary, S13-cdc37, described in 2004 as a CK2-specific substrate, requires higher inhibitor concentrations or longer exposure times to achieve a significant impact on its phosphorylation. The phosphorylation of both substrates is reduced in CK2-knockout cells. Moreover, to gain a more comprehensive view of CK2 substrate phosphorylation, we used a phosphoantibody developed against p-Ser/p-Thr containing a CK2 consensus sequence (pS/pTDXE motif)."}, "[2]": {"system": "phospho-cdc37 S13", "assay": "Western blot of phospho-cdc37 S13 (CK2 substrate) in HeLa cells", "assay_type": "cell-based, human", "conditions": "24 h", "excerpt": "as §1"}, "[3]": {"system": "phospho-Akt1 S129", "assay": "Western blot of phospho-Akt1 S129 (CK2 substrate) in MDA-MB-231 cells", "assay_type": "cell-based", "conditions": "for IC50: Homo sapiens, read-out: IC50 pS129 AKT phosphorylation", "excerpt": "(§2) We repeated the same treatments using a different cell line, breast cancer MDA-MB-231. […] . Even though MDA-MB-231 was less responsive to the two CK2 inhibitors than HeLa cells, the overall outcome appeared similar. […] ."}, "[4]": {"system": "phospho-cdc37 S13", "assay": "Western blot of phospho-cdc37 S13 (CK2 substrate) in MDA-MB-231 cells", "assay_type": "cell-based", "conditions": "Homo sapiens, read-out: IC50 pS13 cdc37 phosphorylation", "excerpt": "as §2"}, "[5]": {"system": "HeLa cells", "assay": "MTT cell viability assay, HeLa", "assay_type": "cell-based, human", "protocol": "(§3) One hour before the end of the incubations, 10 μL of MTT solution (5 mg/mL in PBS) was added to each well. […] Plates were read at λ 540 nm absorbance, in a Titertek Multiskan Plus plate reader (Flow Laboratories, Sutton, UK)."}, "[6]": {"system": "MDA-MB-231 cells", "assay": "MTT cell viability assay, MDA-MB-231", "assay_type": "cell-based", "conditions": "for Effect on cell viability (reduction): MDA cells, 2.5 µM", "protocol": "as §3"}, "[7]": {"system": "CSNK2A1", "design": "method as in PMID 41883516", "conditions": "cited from earlier work"}, "[8]": {"system": "PARP-1", "assay": "PARP-1 degradation/cleavage by Western blot, HeLa", "conditions": "HeLa cells"}, "[9]": {"design": "method as in PMID 37901516", "conditions": "30 min of incubation; cited from earlier work"}, "[10]": {"conditions": "cited from earlier work"}, "[11]": {"system": "PARP-1", "assay": "PARP-1 degradation/cleavage by Western blot, MDA-MB-231", "assay_type": "cell-based", "conditions": "MDA-MB-231 cells"}, "[12]": {"design": "method as in PMID 37077385", "conditions": "preliminary proliferation assays; cited from earlier work"}, "[13]": {"conditions": "MDA-MB-231 cells, 24 h, densitometry of Western blot"}},
  "note": "Read-outs that look alike come from different tables or passages of the source.",
  "data": [
    {"smiles": "O=C(O)c1ccc2c(c1)nc(Nc1cccc(Cl)c1)c1ccncc12", "note": "[CX-4945]", "values": [
      {"measurement": "Phosphorylation of Akt at Ser129", "setting": "[1]; HeLa cells, 2.5 µM (lowest concentration tested), 24 h", "value": "completely abolished"},
      {"measurement": "IC50", "setting": "[1]; HeLa cells, 24 h, densitometry of Western blot", "value": 0.7, "unit": "µM"},
      {"measurement": "IC50", "setting": "[2]; Homo sapiens, HeLa cells, densitometry of Western blot, read-out: IC50 pS13 cdc37 phosphorylation", "value": 3, "unit": "µM"},
      {"measurement": "IC50", "setting": "[3]; [13]", "value": 0.9, "unit": "µM"},
      {"measurement": "IC50", "setting": "[4]; [13]", "value": 4.4, "unit": "µM"},
      {"measurement": "Effect on cell viability (reduction)", "setting": "[5]; HeLa cells, 2.5 µM, 24 h, MTT", "value": "~ 20%"},
      {"measurement": "Effect on cell viability (reduction)", "setting": "[5]; HeLa cells, 2.5 µM, 48 h, MTT", "value": "~ 30%"},
      {"measurement": "Effect on cell viability (reduction)", "setting": "[6]; 24 h, MTT", "value": "~ 5%"},
      {"measurement": "Effect on cell viability (reduction)", "setting": "[6]; 48 h, MTT", "value": "~ 15%"},
      {"measurement": "Significantly downregulated phosphopeptides determined to be CSNK2A1 dependent", "setting": "[7]; after 4 h of treatment", "value": 15, "unit": "%"},
      {"measurement": "Significantly downregulated phosphopeptides determined to be CSNK2A1 dependent", "setting": "[7]; after 24 h of treatment", "value": 5, "unit": "%"},
      {"measurement": "Concentration at which PARP-1 degradation (reduction in total PARP-1) is visible", "setting": "[8]; 24 h", "value": 10, "unit": "µM"},
      {"measurement": "Concentration at which PARP-1 degradation (reduction in total PARP-1) is visible", "setting": "[8]; 48 h", "value": 5, "unit": "µM"},
      {"measurement": "Concentration at which the 89 KDa PARP fragment is detected", "setting": "[8]; after 48 h (first mention (so in the source))", "value": 5, "unit": "µM"},
      {"measurement": "Concentration at which the 89 KDa PARP fragment is detected", "setting": "[8]; after 48 h (second mention)", "value": 2.5, "unit": "µM"}
    ]},
    {"smiles": "CCC(=O)Nc1cc(Nc2cc(NC3CC3)n3ncc(C#N)c3n2)ccc1C", "note": "[SGC-CK2-1]", "values": [
      {"measurement": "Significantly downregulated phosphopeptides determined to be CSNK2A1 dependent", "setting": "[7]; after 4 h of treatment", "value": 55, "unit": "%"},
      {"measurement": "Significantly downregulated phosphopeptides determined to be CSNK2A1 dependent", "setting": "[7]; after 24 h of treatment", "value": 55, "unit": "%"},
      {"measurement": "Compound degraded in vitro in mouse liver microsomes", "setting": "[9]", "value": 60, "unit": "%"},
      {"measurement": "Aqueous solubility", "setting": "[10]", "value": "moderate"}
    ]},
    {"smiles": "O=C(O)c1ccc2c(c1)nc(NCc1ccccc1)c1ncncc12", "note": "[SGC-CK2-2]", "values": [
      {"measurement": "Concentration that nearly abolishes Akt S129 phosphorylation", "setting": "[1]; HeLa, 24 h treatment", "value": 2.5, "unit": "µM"},
      {"measurement": "IC50", "setting": "[1]; HeLa, 24 h", "value": 2.2, "unit": "µM"},
      {"measurement": "IC50", "setting": "[2]; Homo sapiens, HeLa, read-out: IC50 pS13 cdc37 phosphorylation, HeLa cells, 24 h, densitometry of Western blot", "value": 9, "unit": "µM"},
      {"measurement": "IC50", "setting": "[2]; read-out: IC50 pS13 cdc37 phosphorylation, HeLa cells, densitometry of Western blot", "value": 9.9, "unit": "µM"},
      {"measurement": "IC50", "setting": "[3]; MDA-MB-231, 24 h", "value": 1.3, "unit": "µM"},
      {"measurement": "Concentration that nearly abolishes Akt S129 phosphorylation", "setting": "[3]; MDA, 24 h treatment", "value": 5, "unit": "µM"},
      {"measurement": "IC50", "setting": "[4]; MDA-MB-231, 24 h", "value": 20.4, "unit": "µM"},
      {"measurement": "Reduction in cell viability achieved", "setting": "[5]; HeLa cells, 24 h, all concentrations tested (up to 40 µM), MTT", "value": "< 50", "unit": "%"},
      {"measurement": "Effect on cell viability", "setting": "[5]; HeLa, 2.5 µM, 24 h treatment", "value": "no significant effect"},
      {"measurement": "Effect on cell viability", "setting": "[6]; MDA, 5 µM, 24 h treatment", "value": "no significant effect"},
      {"measurement": "Reduction in cell viability achieved", "setting": "[6]; MDA-MB-231 cells, 24 h, all concentrations tested (up to 40 µM), MTT", "value": "< 50", "unit": "%"},
      {"measurement": "Degradation of PARP-1", "setting": "[11]; 24 h, all concentrations tested", "value": "did not induce any degradation"},
      {"measurement": "Concentration giving significant PARP-1 degradation", "setting": "[11]; 48 h", "value": "≥ 20", "unit": "µM"},
      {"measurement": "Aqueous kinetic solubility relative to SGC-CK2-1", "setting": "[10]", "value": "markedly improved"},
      {"measurement": "Antiproliferative effects", "setting": "[12]", "value": "lacks antiproliferative effects"},
      {"measurement": "Concentration at which PARP-1 degradation (reduction in total PARP-1) is visible", "setting": "[8]; 24 h", "value": 40, "unit": "µM"},
      {"measurement": "Concentration at which PARP-1 degradation (reduction in total PARP-1) is visible", "setting": "[8]; 48 h", "value": 20, "unit": "µM"}
    ]}
  ]
}
